Source: US20240100050A1, “MDM2 INHIBITORS AND USES THEREOF” (PMV Pharmaceuticals, Inc., priority 2022, published 2024)

Columns and labels:
SJSA1 tumors = test: Intratumoral dosing regimens of navtemadlin in SJSA1 tumors: tumor volume / % tumor inhibition; format: in vivo, human; conditions: for % TGI Day 24: compared to the vehicle
Method: A study was conducted to compare differences between dosing regimens of navtemadlin administered to SJSA1 tumors. S.ISa-1 is a human […] cell line. Navtemadlin is an MDM2 inhibitor compound of the disclosure. […]
(§1) FIG. 2 panels A and B show the effects of intratumoral dosing regimens of navtemadlin in SJSA1 tumors, such as on tumor volume (mm 3) and % body weight change.

[1] = % body weight change in the SJSA1 tumor dosing regimen study; format: in vivo; conditions: SJSA1 tumors
Method: A study was conducted to compare differences between dosing regimens of navtemadlin administered to SJSA1 tumors. S.ISa-1 is a human […] cell line. Navtemadlin is an MDM2 inhibitor compound of the disclosure. Navtemadlin was administered intratumorally as 20 μL of 100 mg/mL navtemadlin Q3D×9, 20 μL of 100 mg/mL navtemadlin Q7D×5, 20 μL of 100 mg/mL navtemadlin Q14D×3, and 20 μL of 25 mg/mL navtemadlin QD×31.
as §1

[2] = intratumorally 20 μL of 25 mg/mL QD×31
[3] = intratumorally 20 μL of 100 mg/mL Q3D×9
[4] = intratumorally 20 μL of 100 mg/mL Q7D×5
[5] = intratumorally 20 μL of 100 mg/mL Q14D×3

Q: Which results are given for `CC(C)[C@@H](CS(=O)(=O)C(C)C)N1C(=O)[C@@](C)(CC(=O)O)C[C@H](c2cccc(Cl)c2)[C@H]1c1ccc(Cl)cc1` [navtemadlin]?
A: % TGI Day 24 (SJSA1 tumors; Q3Dx21 IT): 94%; % TGI Day 24 (SJSA1 tumors; Q7Dx21 IT): 94%; % TGI Day 24 (SJSA1 tumors; Q14Dx21 IT): 94%; % TGI Day 24 (SJSA1 tumors; QDx21 PO): 94%; tumor volume (SJSA1 tumors; [2]): significant tumor volume reduction; tumor volume (SJSA1 tumors; [3]): significant tumor volume reduction; tumor volume (SJSA1 tumors; [4]): significant tumor volume reduction; tumor volume (SJSA1 tumors; [5]): significant tumor volume reduction; % body weight change [1, 2]: not significantly affecting % body weight change; % body weight change [1, 3]: not significantly affecting % body weight change; % body weight change [1, 4]: not significantly affecting % body weight change; % body weight change [1, 5]: not significantly affecting % body weight change
